The results in this text go back to PMC8495455, “Discovery of a transdermally deliverable pentapeptide for activating AdipoR1 to promote hair growth” (EMBO Molecular Medicine, 2021).

For one experiment, the system named is Adipor1−/− mice. Description: Mouse hair cycle modulation, histology and anagen induction score, Adipor1−/− mice. Format: in vivo. From the text: To test whether the effect of P5 is mediated through AdipoR1 in vivo, we used Adipor1 ^−/− mice (Yamauchi et al, [2007]; Okada‐Iwabu et al, [2013]). […] Consistently, the anagen induction effects of P5 was abolished in the Adipor1 ^−/− mice (Fig 4I and J), in contrast to in WT mouse (Appendix Fig S2). […] Taken together, topical P5 treatment can accelerate hair growth through AdipoR1 in vivo.
Paraffin‐embedded mouse cutaneous back tissue was sectioned (4 μm thickness) and stained with hematoxylin and eosin. […] IF intensity was observed and recorded with a Nikon Eclipse Ni‐E fluorescence microscope (Nikon).
For the hair cycle modulation experiment, Adipoq ^−/− (stock #008195; JAX) (Ma et al, [2002]), Adipor1 ^−/− (Yamauchi et al, [2007]; Okada‐Iwabu et al, [2013]), or C57BL/6 (KOATECH) female mice was used (Müller‐Röver et al, [2001]). […] The mouse hair growth score (a value from 0 to 100 based on the skin pigmentation and hair shaft density) was monitored and documented at designated days with the experimenters being blind to the conditions, following a previous study (Chai et al, [2019]). […] On day 35, we obtained dorsal cutaneous tissue for histological analysis: anagen induction scores (calculated using an assigned arbitrary score; telogen = 1, anagen I–VI = 2–7) (Müller‐Röver et al, [2001]). […]

Another experiment has as its system IGF-1 mRNA. The experiment is described as follows: qRT-PCR growth factor gene expression in DP cells, IGF-1. The class given is cell-based, human. As to conditions: for mRNA_IGF1: DP cells. From the text: Next, we investigated the downstream effects of P5 on hair growth factor genes and proteins in DP cells. […] We tested whether P5 can also increase the mRNA levels and proteins of hair growth factors in DP cells: IGF‐1, VEGF, HGF, platelet‐derived growth factor alpha (PDGFA), and fibroblast growth factor (FGF) 7, which are known to induce or maintain the anagen phase of the hair cycle (Jindo et al, [1994]; Philpott et al, [1994]; Yano et al, [2001]; Jang, [2005]; Tomita et al, [2006]; Iino et al, [2007]).
Total RNA was isolated from P5‐treated DP cells using RNAiso Plus (#9109; TaKaRa). We used the total RNA (1 µg) for cDNA synthesis using a RevertAid First Strand cDNA Synthesis Kit (Thermo Fisher) according to the manufacturer's instructions. The mRNA expression levels were quantified on a 7500 Real‐time PCR System (Thermo Fisher) using TB Green Premix Ex Taq (TaKaRa Bio): human IGF‐1, VEGF, HGF, PDGFA, FGF7, and glyceraldehyde 3‐phosphate dehydrogenase (GAPDH) (Appendix Table S2). The relative expression levels of each gene were determined by the 2^‐ΔΔCT method.

Experiment [1] has as its system AMPK phosphorylation in ORS cells. Description: Western blot p-AMPK, ORS cells. Format: cell-based, human. As to conditions: P5 0 - 50 μM, APN 2.5 μg/ml. From the text: Following the confirmation of the molecular interaction between AdipoR1 and P5, we evaluated the activation of the intracellular signaling pathway by P5. We investigated whether APN treatment on ORS and DP cells could activate AMPK or ERK signaling pathways, which are previously known to be downstream effectors of AdipoR1 (Mao et al, [2006]; Deepa & Dong, [2009]; Shibata et al, [2012]). […] Next, for determination of whether both P5 and APN mediates the phosphorylation of AMPK through AdipoR1 in ORS and DP cells, the cells were transfected with AdipoR1 siRNA (Appendix Fig S1). […] Collectively, P5 activates AMPK signaling pathway through AdipoR1 in ORS and DP cells in vitro.
Human ORS and DP cells or skin tissue were lysed (RIPA lysis buffer; #20‐188; Merck Millipore). The obtained protein was then separated by 8% SDS–PAGE and transferred to a polyvinylidene fluoride membrane (Amersham). The protein transferred membranes were incubated overnight with the specific antibodies. […] Antibody‐antigen complexes detected by enhanced chemiluminescent substrate (Thermo Fisher) were captured and quantified by Amersham imager 680 systems (GE Healthcare).

For the substance “GLYYF [P5, GST-fused (GST-P5) in pulldown assays]”, in the experiment with Adipor1−/− mice, the “Histology / anagen induction score vs vehicle” value is listed as “anagen HF was not found”. Also, the mRNA_IGF1 with IGF-1 mRNA (P5 5μM, relative to Control = 1, replicate 1) is recorded as 1.775; in the experiment on IGF-1 mRNA (P5 5μM, relative to Control = 1, replicate 2), 0.9141; in the experiment with IGF-1 mRNA (P5 5μM, relative to Control = 1, replicate 3), 1.9981; with IGF-1 mRNA (P5 5μM, relative to Control = 1, replicate 4), 0.5956; in the experiment with IGF-1 mRNA (P5 5μM, relative to Control = 1, replicate 5) it was 0.9696; in the experiment on IGF-1 mRNA (P5 25μM, relative to Control = 1, replicate 1) it was 4.048. Moreover, the mRNA_IGF1 was determined as 1.581 in the experiment on IGF-1 mRNA (P5 25μM, relative to Control = 1, replicate 2); 3.012 in the experiment on IGF-1 mRNA (P5 25μM, relative to Control = 1, replicate 3); 4.414 with IGF-1 mRNA (P5 25μM, relative to Control = 1, replicate 4); 1.2502 in the experiment with IGF-1 mRNA (P5 25μM, relative to Control = 1, replicate 5). Also, in the experiment with IGF-1 mRNA (P5-treated DP cells, n = 5), the “IGF-1 mRNA expression” value is listed as “significantly increased”. For the same substance, the “Phosphorylation of AMPK, ORS cells” value in experiment [1] is recorded as “concentration‐dependent phosphorylation of AMPK”.
